Measured values published in publication PMC9923211, “Functional characterization and key residues engineering of a regiopromiscuity O-methyltransferase involved in benzylisoquinoline alkaloid biosynthesis in Nelumbo nucifera” (Horticulture Research, 2022).
Values belong to the molecule of their own block, whether it stands above or below them.

What was measured:
Experiment in all cases: UPLC-MS methylation assay, Michaelis-Menten fit
NnOMT6 = target: T1, NnOMT6 (Nelumbo nucifera, UniProt A0A1U7Z1M5); type: biochemical; conditions: 50 mM potassium phosphate pH 8.0, 37°C, 30 min
T1 construct: gene LOC104585771

[1] = test system: COc1c(O)cc2c3c1-c1ccccc1C[C@@H]3NCC2; type: biochemical, Nelumbo nucifera; conditions: SAM as methyl donor, 50 mM potassium phosphate pH 8.0, 37°C, 30 min
[2] = test system: COc1cc2c(cc1O)[C@@H]1Cc3ccc(OC)c(O)c3CN1CC2; type: biochemical, Nelumbo nucifera; conditions: SAM as methyl donor, 50 mM potassium phosphate pH 8.0, 37°C, 30 min

- Km (NnOMT6; 200 μM caffeic acid as acceptor): 163 µM
Molecule: C[S+](CC[C@H](N)C(=O)O)C[C@H]1O[C@@H](n2cnc3c(N)ncnc32)[C@H](O)[C@@H]1O (some centres unmarked) [SAM]

- Km (NnOMT6; 200 μM SAM): 282 µM
Molecule: Oc1ccc(C[C@@H]2NCCc3cc(O)c(O)cc32)cc1 [compound 1, (S)-norcoclaurine]

- Km (NnOMT6; 200 μM SAM): 216 µM
Molecule: O=C(O)/C=C/c1ccc(O)c(O)c1 [compound 16, caffeic acid]

Molecule: NnOMT6 (Nelumbo nucifera; N323A)
- Km [1]: 132.77 µM
- Km [2]: 86.35 µM
